From ChEMBL document CHEMBL4052670, “The selective cytotoxicity of new triazene compounds to human melanoma cells” (Bioorg Med Chem, 2017)

Legend:
[1] = Apparent partition coefficient, log P of the compound in 1-octanol/phosphate buffer at pH 7.4 measured after 30 mins by HPLC analysis; format: physicochemical; conditions: read-out: LogD7.4
[2] = Cytotoxicity against human MNT1 cells after 72 hrs by MTS assay; format: functional, cell-based; conditions: MNT-1, 72 h
[3] = Prodrug activation assessed as mushroom tyrosinase-mediated compound hydrolysis by measuring Pseudo first-order rate constants in presence of 100 U/ml of tyrosinase by HPLC analysis; conditions: agaricus bisporus
[4] = Half life in phosphate buffered saline at pH 7.4 by HPLC analysis; format: physicochemical
mushroom tyrosinase [5] = molecular target: T1, mushroom tyrosinase (Agaricus bisporus, UniProt C7FF04+C7FF05+O42713+Q00024); assay: Drug metabolism assessed as mushroom tyrosinase-mediated compound consumption in presence of 100 U/ml of tyrosinase by HPLC method; format: ADME; conditions: read-out: Drug metabolism
[6] = Prodrug activation assessed as mushroom tyrosinase-mediated compound hydrolysis by measuring half life in presence of 100 U/ml of tyrosinase by HPLC analysis; conditions: agaricus bisporus
[7] = Half life in 80% human plasma by HPLC analysis; format: ADME, cell-free
B16-F10 = assay: Cytotoxicity against mouse B16F10 cells after 72 hrs by MTS assay; format: functional, cell-based; conditions: B16-F10, 72 h
HaCaT = assay: Cytotoxicity against human HaCaT cells after 72 hrs by MTS assay; format: cell-based
[8] = Half life in deuterated phosphate buffer at pH 7.8 by 1H-NMR spectra analysis; format: physicochemical
[9] = Stability of the compound in phosphate buffered saline at pH 7.4 assessed as parent compound remaining measured after 8 days by HPLC analysis; format: physicochemical; conditions: read-out: Stability
Mushroom tyrosinase [10] = molecular target: T2, Mushroom tyrosinase (Agaricus bisporus, UniProt O42713+Q00024+C7FF04+C7FF05); assay: Ratio of Kcat to Km for mushroom tyrosinase-mediated compound oxidation; format: ADME
Mushroom tyrosinase [11] = molecular target: T2, Mushroom tyrosinase; assay: (§1) Drug metabolism assessed as mushroom tyrosinase-mediated compound oxidation by Michaelis-Menten plot analysis; format: ADME
mushroom tyrosinase [12] = molecular target: T1, mushroom tyrosinase; assay: as §1; format: ADME; conditions: mushroom tyrosinase
[13] = Prodrug activation assessed as mushroom tyrosinase-mediated compound hydrolysis by measuring half life in presence of 300 U/ml of tyrosinase by HPLC analysis; conditions: agaricus bisporus
[14] = Prodrug activation assessed as mushroom tyrosinase-mediated compound hydrolysis by measuring Pseudo first-order rate constants in presence of 300 U/ml of tyrosinase by HPLC analysis; conditions: agaricus bisporus
mushroom tyrosinase [15] = molecular target: T1, mushroom tyrosinase; assay: Drug metabolism assessed as mushroom tyrosinase-mediated compound consumption in presence of 300 U/ml of tyrosinase by HPLC method; format: ADME; conditions: read-out: Drug metabolism
[16] = Retention time of the compound in phosphate buffered saline at pH 7.4 by HPLC method
Mushroom tyrosinase [17] = molecular target: T2, Mushroom tyrosinase; assay: Drug metabolism assessed as mushroom tyrosinase-mediated compound hydrolysis by measuring retention time by HPLC method; format: ADME
Plasma = assay: Retention time of the compound in 80% human plasma by HPLC method; format: ADME, cell-free
[18] = tested on: N[C@@H](Cc1ccc(O)cc1)C(=O)O; assay: (§2) Substrate activity at mushroom tyrosinase monophenolase activity by spectrophotometry based Michaelis-Menten plot analysis; conditions: Agaricus bisporus
NCCc1ccc(O)c(O)c1 = assay: as §2; conditions: Agaricus bisporus
O=C(O)Cc1ccc(O)cc1 = assay: as §2; conditions: Agaricus bisporus

Mushroom tyrosinase (Agaricus bisporus), sequence (C7FF05 whole entry, looked up): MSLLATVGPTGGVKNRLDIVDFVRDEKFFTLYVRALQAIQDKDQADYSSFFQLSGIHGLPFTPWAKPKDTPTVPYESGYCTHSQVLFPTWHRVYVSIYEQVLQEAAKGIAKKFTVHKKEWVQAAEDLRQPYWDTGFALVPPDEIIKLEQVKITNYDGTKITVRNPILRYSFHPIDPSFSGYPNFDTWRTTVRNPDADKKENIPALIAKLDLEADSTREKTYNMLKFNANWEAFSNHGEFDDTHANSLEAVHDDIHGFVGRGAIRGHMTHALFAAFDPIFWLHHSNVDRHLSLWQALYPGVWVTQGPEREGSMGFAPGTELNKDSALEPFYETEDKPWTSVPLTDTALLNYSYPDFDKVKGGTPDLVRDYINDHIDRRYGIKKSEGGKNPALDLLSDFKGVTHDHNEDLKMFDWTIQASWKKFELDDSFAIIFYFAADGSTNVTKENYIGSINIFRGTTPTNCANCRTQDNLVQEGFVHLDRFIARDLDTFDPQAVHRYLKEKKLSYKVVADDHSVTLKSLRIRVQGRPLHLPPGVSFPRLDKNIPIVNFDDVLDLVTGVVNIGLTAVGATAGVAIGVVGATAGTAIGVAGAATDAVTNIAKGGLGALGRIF
Mushroom tyrosinase (Agaricus bisporus), sequence (C7FF04 whole entry, looked up): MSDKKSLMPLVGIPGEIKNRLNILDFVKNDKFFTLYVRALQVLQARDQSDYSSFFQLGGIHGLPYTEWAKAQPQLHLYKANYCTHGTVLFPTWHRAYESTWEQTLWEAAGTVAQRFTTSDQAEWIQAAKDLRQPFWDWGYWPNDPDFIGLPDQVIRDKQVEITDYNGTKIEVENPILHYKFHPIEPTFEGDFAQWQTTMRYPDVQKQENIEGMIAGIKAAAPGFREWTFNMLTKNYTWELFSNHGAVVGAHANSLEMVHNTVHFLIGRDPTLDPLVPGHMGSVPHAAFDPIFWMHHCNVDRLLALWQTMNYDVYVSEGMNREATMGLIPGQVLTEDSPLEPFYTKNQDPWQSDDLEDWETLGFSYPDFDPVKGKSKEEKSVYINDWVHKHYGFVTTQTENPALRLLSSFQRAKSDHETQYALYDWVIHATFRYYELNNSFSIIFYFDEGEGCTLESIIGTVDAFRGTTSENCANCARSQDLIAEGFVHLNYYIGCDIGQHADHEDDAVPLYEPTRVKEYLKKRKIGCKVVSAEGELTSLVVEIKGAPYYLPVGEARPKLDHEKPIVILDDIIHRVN
Mushroom tyrosinase (Agaricus bisporus), sequence (Q00024 whole entry, looked up): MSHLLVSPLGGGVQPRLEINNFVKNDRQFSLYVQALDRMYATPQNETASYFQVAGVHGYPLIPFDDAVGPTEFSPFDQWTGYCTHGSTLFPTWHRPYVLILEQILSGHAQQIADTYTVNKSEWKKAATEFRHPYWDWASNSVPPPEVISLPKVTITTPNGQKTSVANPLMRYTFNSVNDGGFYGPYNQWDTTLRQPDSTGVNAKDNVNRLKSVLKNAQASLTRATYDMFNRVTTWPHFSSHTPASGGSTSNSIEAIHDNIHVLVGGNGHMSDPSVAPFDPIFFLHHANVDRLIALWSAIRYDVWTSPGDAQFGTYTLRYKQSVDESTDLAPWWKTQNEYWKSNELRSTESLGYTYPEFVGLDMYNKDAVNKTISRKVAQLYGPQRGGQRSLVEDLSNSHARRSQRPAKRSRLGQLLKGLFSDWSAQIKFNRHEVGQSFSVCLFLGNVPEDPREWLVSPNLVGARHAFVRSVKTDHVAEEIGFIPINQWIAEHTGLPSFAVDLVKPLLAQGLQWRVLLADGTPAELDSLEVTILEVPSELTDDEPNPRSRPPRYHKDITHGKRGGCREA
Mushroom tyrosinase (Agaricus bisporus), sequence (O42713 whole entry, looked up): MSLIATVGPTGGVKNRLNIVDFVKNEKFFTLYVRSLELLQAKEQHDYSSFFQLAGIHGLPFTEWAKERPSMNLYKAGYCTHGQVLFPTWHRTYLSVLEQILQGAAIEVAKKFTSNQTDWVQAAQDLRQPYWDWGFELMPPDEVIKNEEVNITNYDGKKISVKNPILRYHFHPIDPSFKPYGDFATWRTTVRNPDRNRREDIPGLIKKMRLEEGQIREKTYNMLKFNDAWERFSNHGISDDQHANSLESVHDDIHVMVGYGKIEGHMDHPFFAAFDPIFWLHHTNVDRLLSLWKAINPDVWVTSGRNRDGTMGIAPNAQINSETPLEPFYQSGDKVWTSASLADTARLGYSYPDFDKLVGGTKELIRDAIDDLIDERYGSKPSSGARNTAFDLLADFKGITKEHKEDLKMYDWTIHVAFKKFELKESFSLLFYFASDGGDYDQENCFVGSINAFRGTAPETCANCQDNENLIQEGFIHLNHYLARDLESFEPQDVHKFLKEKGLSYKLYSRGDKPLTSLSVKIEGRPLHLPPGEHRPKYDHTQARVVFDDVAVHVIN

Molecule	logD at 0.5 h [1]	IC50 [2]	half-life [4]	t1/2 [6]	half-life [7]	IC50 (B16-F10)	IC50 (HaCaT)	half-life [8]	other results
CC(=O)c1ccc(/N=N/N(C)C(=O)CCc2ccc(O)cc2)cc1	3.05	> 75 µM	123 h	0.06 to 0.061 h	14.6 h	> 75 µM	75 to 150 µM	–	K [3]: 3.2 ×10⁻³ /s; metabolised (mushroom tyrosinase [5]): 100%
CCOC(=O)N(C)/N=N/c1nc(OCc2ccccc2)c2nc[nH]c2n1	–	–	–	–	–	–	–	0.4 to 58.3 h	–
Cc1ccc(/N=N/N(C)C(=O)CCCCc2ccc(O)cc2)cc1	4	64.6 µM	–	0.0123 h	79.7 h	57.6 µM	> 150 µM	–	remaining at 192 h [9]: 100%
CC(=O)Nc1ccc(OC(=O)N(C)/N=N/c2nc(OCc3ccccc3)c3nc[nH]c3n2)cc1	–	–	–	–	–	–	–	0.4 to 58.3 h	–
CCOc1nc(/N=N/N(C)C(=O)Oc2ccc([N+](=O)[O-])cc2)nc2[nH]cnc12	–	–	–	–	–	–	–	0.4 to 58.3 h	–
CN(/N=N/c1nc(OCc2ccccc2)c2nc[nH]c2n1)C(=O)c1cccnc1	–	–	–	–	–	–	–	22.1 to 58.3 h	–
CCOc1nc(/N=N/N(C)C(=O)Oc2ccc(C(=O)OC)cc2)nc2[nH]cnc12	–	–	–	–	–	–	–	0.4 to 58.3 h	–
COC(=O)c1ccc(/N=N/N(C)C(=O)CCCCc2ccc(O)cc2)cc1	3.9	> 75 µM	124 h	0.06 h	17.4 h	> 75 µM	75 to 150 µM	–	Kcat/Km (Mushroom tyrosinase [10]): 13.88 M⁻¹ s⁻¹; Kcat (Mushroom tyrosinase [11]): 0.013 s⁻¹; Vmax (Mushroom tyrosinase [11]): 0.018 µM/min; Km (mushroom tyrosinase [12]): 1080 µM
COC(=O)c1ccc(/N=N/N(C)C(=O)CCc2cccc(O)c2)cc1	3.42	> 75 µM	94.7 h	–	7.8 h	> 75 µM	75 to 150 µM	–	t1/2 [13]: 21.17 h; K [14]: 9.1 ×10⁻⁶ /s; metabolised (mushroom tyrosinase [15]): 97.5%; Retention time [16]: 12.5 min; Retention_time (Mushroom tyrosinase [17]): 12.3 min
CN(/N=N/c1nc(OCc2ccccc2)c2nc[nH]c2n1)C(=O)Oc1ccc(C(N)=O)cc1	–	–	–	–	–	–	–	0.4 to 58.3 h	–
Cn1nnc2c(C(N)=O)ncn2c1=O [TEMOZOLOMIDE]	–	> 75 µM	–	–	–	> 75 µM	–	–	–
COC(=O)c1ccc(/N=N/N(C)C(=O)CCc2ccc(O)cc2)cc1	3.23	> 75 µM	102 h	0.041 to 0.0417 h	7.3 h	> 75 µM	75 to 150 µM	–	K [3]: 4.7 ×10⁻³ /s; metabolised (mushroom tyrosinase [5]): 100%
CN(/N=N/c1ccc(Br)cc1)C(=O)CCCCc1ccc(O)cc1	4.32	45.8 µM	–	0.108 h	162 h	52.2 µM	> 75 µM	–	remaining at 192 h [9]: 100%
CCOC(=O)c1ccc(/N=N/N(C)C(=O)CCCCc2ccc(O)cc2)cc1	4.5	> 75 µM	–	0.08 h	26.3 h	> 75 µM	> 150 µM	–	remaining at 192 h [9]: 100%
CN(/N=N/c1ccc(C#N)cc1)C(=O)CCc1ccc(O)cc1	3.4	> 75 µM	76 h	0.025 h	5.8 h	> 75 µM	75 to 150 µM	–	K [3]: 7.9 ×10⁻³ /s; metabolised (mushroom tyrosinase [5]): 100%
CN(/N=N/c1ccc(C#N)cc1)C(=O)CCCCc1ccc(O)cc1	4.3	> 75 µM	82.5 h	0.07 h	11.8 h	> 75 µM	75 to 150 µM	–	Kcat/Km (Mushroom tyrosinase [10]): 1.39 M⁻¹ s⁻¹; Kcat (Mushroom tyrosinase [11]): 0.009 s⁻¹; Vmax (Mushroom tyrosinase [11]): 0.012 µM/min; Km (mushroom tyrosinase [12]): 860 µM; Retention_time (Mushroom tyrosinase [17]): 9.8 min
CN(/N=N/c1ccc(C#N)cc1)C(=O)Cc1ccc(O)cc1	2.99	–	48 h	0.467 to 0.468 h	1.48 h	–	–	–	–
Nc1ccccc1 [ANILINE]	–	–	–	–	–	–	–	–	Retention_time (Plasma): 2 min; Retention time [16]: 2.4 min; Retention time (Mushroom tyrosinase [17]): 2 to 2.1 min
CC(=O)N(C)/N=N/c1nc(OCc2ccccc2)c2nc[nH]c2n1	–	–	–	–	–	–	–	22.1 to 58.3 h	–
CN(/N=N/c1ccc(C#N)cc1)C(=O)CCc1cccc(O)c1	3.24	> 75 µM	60.1 h	–	2.7 h	> 75 µM	75 to 150 µM	–	Retention_time (Plasma): 8.8 min; t1/2 [13]: 19.45 h; K [14]: 9.9 ×10⁻⁶ /s; metabolised (mushroom tyrosinase [15]): 91.1%
CN(/N=N/c1ccc(C(N)=O)cc1)C(=O)CCCCc1ccc(O)cc1	3.6	> 75 µM	182 h	0.0967 h	55.4 h	> 75 µM	75 to 150 µM	–	–
COC(=O)c1ccc(/N=N/N(C)C(=O)CCc2ccc(OC(=O)CCc3ccc(O)cc3)cc2)cc1	–	–	–	0.107 h	–	–	–	–	K [3]: 1.8 ×10⁻³ /s
CC(=O)c1ccc(/N=N/N(C)C(=O)CCCCc2ccc(O)cc2)cc1	4	> 75 µM	–	0.0218 h	32.7 h	> 75 µM	> 100 µM	–	remaining at 192 h [9]: 100%
CN(/N=N/c1nc(OCc2ccccc2)c2nc[nH]c2n1)C(=O)c1ccccc1	–	–	–	–	–	–	–	22.1 to 58.3 h	–
CN(/N=N/c1ccc(C(N)=O)cc1)C(=O)CCc1ccc(O)cc1	2.8	> 75 µM	118 h	0.0767 to 0.077 h	48.5 h	> 75 µM	75 to 150 µM	–	K [3]: 2.5 ×10⁻³ /s; metabolised (mushroom tyrosinase [5]): 100%
CC(=O)c1ccc(/N=N/N(C)C(=O)CCc2ccc(OC(=O)CCc3ccc(O)cc3)cc2)cc1	–	–	–	0.0917 h	–	–	–	–	K [3]: 2.1 ×10⁻³ /s
CN(/N=N/c1nc(OCc2ccccc2)c2nc[nH]c2n1)C(=O)c1ccc([N+](=O)[O-])cc1	–	–	–	–	–	–	–	22.1 to 58.3 h	–
CN(/N=N/c1nc(OCc2ccccc2)c2nc[nH]c2n1)C(=O)Oc1ccccc1	–	–	–	–	–	–	–	0.4 to 58.3 h	–
CCOc1nc(/N=N/N(C)C(=O)Oc2ccc(S(N)(=O)=O)cc2)nc2[nH]cnc12	–	–	–	–	–	–	–	0.4 to 58.3 h	–
Mushroom tyrosinase (Agaricus bisporus) (from UniProt O42713+Q00024+C7FF04+C7FF05)	–	–	–	–	–	–	–	–	Km [18]: 250 µM; Km (NCCc1ccc(O)c(O)c1): 280 µM; Km (O=C(O)Cc1ccc(O)cc1): 1910 µM
